Source: patent US5079260A, “Method for treating inflammation and compounds and compositions suitable for use therein” (Nova Pharmaceutical Corporation, priority 1990, dated 1992)

Key:
[1] = system: Ear Edema Caused by Xylene; experiment: Inhibition of Ear Edema Caused by Xylene (II), Table 9; format: in vivo, CF-1 mice; settings: i.p., 2 h
Experimental: Inhibition of Ear Edema Caused by Xylene (II)
(§1) CF-1 mice, 25-30 g body weight, six animals per group, were used. The requisite amount of the test compound was dissolved is dimethyl sulfoxide or 0.5% methylcellulose and 100 μL of the solution was injected intraperitoneally 30 minutes prior to the administration the irritant. The irritant xylene was applied to the surface of the ear, 20 μL to the upper surface and 20 μL to the lower surface, After two hours, the thickness of the ear was measured to 0.01 mm by a micrometer with the loose drag positioned at the lateral-most edge of the mid-point of the pinna. Data were calculated as the percent inhibition by the test compound of increased ear thickness compared to control animals receiving only the irritant.

[2] = system: Ear Edema Caused by Arachidonic Acid; experiment: Inhibition of Ear Edema Caused by Arachidonic Acid (II), Table 8; format: in vivo, CF-1 mice; settings: i.p., sixty minutes
Experimental: Inhibition of Ear Edema Caused by Arachidonic Acid (II)
as §1, with “of 100 mg/kg of arachidponic acid. A solution of this irritant, b 100 mg/mL in ethanol,” for “the irritant. The irritant xylene”, “5” for “20”, “surface.” for “surface,”, “sixty minutes,” for “two hours,”, “inhibityion” for “inhibition”, “recieveing” for “receiving”

[3] = system: Reverse Passive Artus Reaction; experiment: Reverse Passive Artus Reaction (II), Table 11; format: in vivo, Male CD rats; settings: inhibition of blueing; i.p., 100 mg/kg
Experimental: Reverse Passive Artus Reaction (II) Male CD rats weighing between 200 and 250 g were used. […] The animals were anesthetized inhalationally with isoflurane and then injected through the penile vein with 1 mL of a solution of 2.5 mg of Evan's blue dye and 5.0 mg of human serum albumin in 1 mL of saline. This treatment was followed immediately by intracutaneous injections of 0.03 mL of anti-human albumin diluted to contain 3.65 mg of antibody at 3 sites along the midline back. Anesthesia was terminated and after three hours, the animals were sacrificed. The skin was removed and the blue stained areas cut out. The skin patches were soaked overnight in stoppered tubes containing 1 mL of 1 N potassium hydroxide at 37° C. Then 9 mL of a mixture of five parts of a 0.6 N phosphoric acid and thirteen parts of acetone were added to the tubes. The tube contents were agitated and centrifuged, and the absorbance measured at 620 nm. The data were calculated as inhibition of blueing by test compound compared to control animals receiving only antigen and antibody.

[4] = system: Ear Edema Caused By Tetradecanoylphorbol Acetate; experiment: Inhibition of Ear Edema Caused by Tetradecanoylphorbol Acetate (II), Table 7; format: in vivo, CF-1 Mice; settings: i.p., 3 h
Experimental: Inhibition of Ear Edema Caused by Tetradecanoylphorbol Acetate (II)
CF-1 Mice, 25-30 g body weight, six animals per group were used. Test compounds were administered intraperitoneally or topically as follows. For intraperitoneal administration, the test compound was dissolved in dimethyl sulfoxide or 0.5% methylcellulose and 100 microliters was injected 30 minutes prior to irritant (100 mg/kg, i.p.). […] A solution of the irritant, tetradecanoylphorbol acetate, 200 μg/mL, was added to the surface of the ear, 5 μL to the upper surface and 5 μL to the lower surface. After three hours, the thickness of the ear was measured to 0.01 mm by a micrometer with loose drag, positioned at the lateral-most edge of the mid-point of the pinna. Data were calculated as the inhibition of increased ear thickness compared to control animals receiving only the irritant.

[5] = system: Ear Edema Caused by Oxazolone; experiment: Inhibition of Ear Edema Caused by Oxazolone (II), Table 10; format: in vivo, CF-1 mice; settings: i.p., 24 h
Experimental: Inhibition of Ear Edema Caused by Oxazolone (II)
CF-1 mice, 25-30 g body weight, five to six animals per group were used. The mice were sensitized to the irritant two weeks prior to the test by dribbling 100 μL of a 3% solution of oxazolone in acetone onto the abdominal skin of the animal. Test compounds were administered intraperitoneally as follows. […] The irritant, 3% oxazolone in acetone, was added to the surface of the ear, 5 μL added to the upper surface and 5 μL added to the lower surface. After twenty four hours, the thickness of the ear was measured to 0.01 mm by a micrometer with loose drag, positioned at the lateral-most edge of the mid-point of the pinna. Data were calculated as the inhibition of increased ear thickness compared to control animals' receiving only the irritant.

[6] = system: Ear Edema Caused by Tetradecanoylphorbolacetate; experiment: Inhibition of Ear Edema Caused by Tetradecanoylphorbolacetate (I), Table 1; format: in vivo, CF-1 Mice; settings: i.p., 100 mg/kg, 30 min before irritant; ear thickness at 3 h
Description: Such inflammatory agents typically include tetradecanoylphorbolacetate, arachidonic acid, xylene, capsaicin, oxazolone, carrageenan and the like. The reverse passive Arthus test offers another measure of the compound's utility in preventing an inflammatory response (Chang et al, Eur. J. Pharm. 69:155-164 (1981)). Test compounds are typically administered intraperitoneally or topically. For intraperitoneal administration, the test compound can be given in dimethyl sulfoxide or in 0.5% methylcellulose 30 minutes prior to administration of the irritant. For topical administration, the test compound can be dissolved in, for example, acetone, ethanol or dimethyl sulfoxide and applied about 15 minutes prior to application of the irritant. Results can be expressed as the percent decrease in swelling in the compound-treated animals as compared to control animals that receive only the irritant.
Inhibition of Ear Edema Caused by Tetradecanoylphorbolacetate (I)
CF-1 Mice, 25-30 g body weight, six animals per group, were used. Test compounds (compounds of Formula I where X is oxygen, R3, R4, A and B are hydrogen and Q is as indicated in Table 1) were administered intraperitoneally (100 mg/kg) or topically as follows. For intraperitoneal administration, the test compound was dissolved in dimethyl sulfoxide or 0.5% methylcellulose and 100 μl was injected 30 minutes prior to irritant (100 mg/kg, i.p.). For topical administration, the test compound was dissolved in either acetone, ethanol or dimethyl sulfoxide and 5 μl (100 μg) applied to the upper surface (1 cm^2) of the ear and an additional 5 μl (100 μg) applied to the lower surface (1 cm^2) of the ear fifteen minutes prior to application of the irritant. A solution of the irritant, tetradecanoylphorbolacetate, 200 μg/ml, was added to the surface of the ear, 5 μl added to the upper surface and 5 μl to the lower surface. After three hours, the thickness of the ear was measured to 0.01 mm by a micrometer with loose drag positioned at the lateral-most edge of the mid-point of the pinna. Data were calculated as the inhibition by the test compound of increased ear thickness compared to control animals receiving only the irritant.

Cc1cccc2c1C(COC(=O)N[C@@H](CC(C)C)C(=O)O)c1ccccc1-2 (stereo partly drawn) [NPC 15638, N-{[9H-(1-Methylfluoren-9-yl)methoxy]carbonyl}-L-leucine]
% Inhibition ([1]; 10 mg/kg): 37%
% Inhibition ([1]; 30 mg/kg): 66%
% Inhibition ([1]; 100 mg/kg): 82%
% Inhibition Intraperitoneal ([2]; 100 mg/kg): 65%
% Inhibition Intraperitoneal [3]: 68%
% Inhibition Intraperitoneal ([4]; 10 mg/kg): 23%
% Inhibition Intraperitoneal ([4]; 30 mg/kg): 12%
% Inhibition Intraperitoneal ([4]; 100 mg/kg): 62%
% Inhibition Intraperitoneal ([5]; 30 mg/kg): 67%
% Inhibition Intraperitoneal ([5]; 100 mg/kg): 74%

Cc1cccc2c1C(CCC(=O)N[C@H](C(=O)O)C(C)(C)C)c1ccccc1-2 (stereo partly drawn) [NPC 15885, N-{9H-[3-(1-Methylfluoren-9-yl)propionyl]}-L-tert-leucine, quarter hydrate]
% Inhibition ([1]; 10 mg/kg): 39%
% Inhibition ([1]; 30 mg/kg): 49%
% Inhibition ([1]; 100 mg/kg): 48%
% Inhibition Intraperitoneal ([2]; 10 mg/kg): 52%
% Inhibition Intraperitoneal ([2]; 30 mg/kg): 71%
% Inhibition Intraperitoneal ([2]; 100 mg/kg): 79%
% Inhibition Intraperitoneal [3]: 49%
% Inhibition Intraperitoneal ([4]; 10 mg/kg): 70%
% Inhibition Intraperitoneal ([4]; 30 mg/kg): 77%
% Inhibition Intraperitoneal ([4]; 100 mg/kg): 80%
% Inhibition Intraperitoneal ([5]; 10 mg/kg): 1%
% Inhibition Intraperitoneal ([5]; 30 mg/kg): 8%
% Inhibition Intraperitoneal ([5]; 100 mg/kg): 36%

CC(C)(SCc1ccccc1)[C@@H](NC(=O)OCC1c2ccccc2-c2ccccc21)C(=O)O [NPC 15953, S-Benzyl-β,β-dimethyl-N-[9H-(fluoren-9-ylmethoxy)carbonyl]-D-cystein]
% Inhibition ([1]; 10 mg/kg): 46%
% Inhibition ([1]; 30 mg/kg): 66%
% Inhibition ([1]; 100 mg/kg): 60%
% Inhibition Intraperitoneal ([2]; 10 mg/kg): 46%
% Inhibition Intraperitoneal ([2]; 30 mg/kg): 66%
% Inhibition Intraperitoneal ([2]; 100 mg/kg): 60%
% Inhibition Intraperitoneal [3]: 68%
% Inhibition Intraperitoneal ([4]; 10 mg/kg): 64%
% Inhibition Intraperitoneal ([4]; 30 mg/kg): 87%
% Inhibition Intraperitoneal ([4]; 100 mg/kg): 95%
% Inhibition Intraperitoneal ([5]; 10 mg/kg): 0%
% Inhibition Intraperitoneal ([5]; 30 mg/kg): 28%
% Inhibition Intraperitoneal ([5]; 100 mg/kg): 79%

COCc1cccc2c1C(COC(=O)N[C@@H](CC(C)C)C(=O)O)c1ccccc1-2 (stereo partly drawn) [NPC 15673, N-{[9H-(1-Methoxymethylfluoren-9-yl)methoxy]carbonyl}-L-leucine]
% Inhibition ([1]; 10 mg/kg): 20%
% Inhibition ([1]; 30 mg/kg): 26%
% Inhibition ([1]; 100 mg/kg): 29%
% Inhibition Intraperitoneal ([2]; 10 mg/kg): 24%
% Inhibition Intraperitoneal ([2]; 30 mg/kg): 27%
% Inhibition Intraperitoneal ([2]; 100 mg/kg): 58%
% Inhibition Intraperitoneal [3]: 46%
% Inhibition Intraperitoneal ([4]; 10 mg/kg): 0%
% Inhibition Intraperitoneal ([4]; 30 mg/kg): 33%
% Inhibition Intraperitoneal ([4]; 100 mg/kg): 60%
% Inhibition Intraperitoneal ([5]; 10 mg/kg): 0%
% Inhibition Intraperitoneal ([5]; 30 mg/kg): 12%
% Inhibition Intraperitoneal ([5]; 100 mg/kg): 18%

CNC(=O)[C@H](CC(C)C)NC(=O)OCC1c2ccccc2-c2ccccc21 [NPC 15529, N-[(9H-Fluoren-9-ylmethoxy)carbonyl]-L-leucine methylamide]
% Inhibition ([1]; 10 mg/kg): 50%
% Inhibition ([1]; 30 mg/kg): 47%
% Inhibition ([1]; 100 mg/kg): 50%
% Inhibition Intraperitoneal ([2]; 10 mg/kg): 16%
% Inhibition Intraperitoneal ([2]; 30 mg/kg): 32%
% Inhibition Intraperitoneal ([2]; 100 mg/kg): 29%
% Inhibition Intraperitoneal [3]: 0%
% Inhibition Intraperitoneal ([4]; 10 mg/kg): 67%
% Inhibition Intraperitoneal ([4]; 30 mg/kg): 67%
% Inhibition Intraperitoneal ([4]; 100 mg/kg): 78%
% Inhibition Intraperitoneal ([5]; 10 mg/kg): 32%
% Inhibition Intraperitoneal ([5]; 30 mg/kg): 41%
% Inhibition Intraperitoneal ([5]; 100 mg/kg): 76%

CC(C)(C)[C@H](NC(=O)CCC1c2ccccc2-c2ccccc21)C(=O)O [NPC 15685, N-[3-(9H-Fluoren-9-yl)propionyl]-L-tert-leucine, quarter hydrate]
% Inhibition ([1]; 10 mg/kg): 5%
% Inhibition ([1]; 30 mg/kg): 23%
% Inhibition ([1]; 100 mg/kg): 18%
% Inhibition Intraperitoneal ([2]; 10 mg/kg): 44%
% Inhibition Intraperitoneal ([2]; 30 mg/kg): 61%
% Inhibition Intraperitoneal ([2]; 100 mg/kg): 69%
% Inhibition Intraperitoneal [3]: 42%
% Inhibition Intraperitoneal ([4]; 10 mg/kg): 0%
% Inhibition Intraperitoneal ([4]; 30 mg/kg): 16%
% Inhibition Intraperitoneal ([4]; 100 mg/kg): 67%
% Inhibition Intraperitoneal ([5]; 10 mg/kg): 0%
% Inhibition Intraperitoneal ([5]; 30 mg/kg): 30%
% Inhibition Intraperitoneal ([5]; 100 mg/kg): 30%

NCCCC[C@H](N)C(=O)O [L-Lysine]
% Inhibition Intraperitoneal [6]: 14%

CC(C)C[C@H](NC(=O)OCC1c2ccccc2-c2ccccc21)C(=O)OC(C)(C)C [NPC 15527, N-[(9H-Fluoren-9-ylmethoxy)carbonyl]-L-leucine t-butyl ester]
% Inhibition ([1]; 10 mg/kg): 42%
% Inhibition ([1]; 30 mg/kg): 34%
% Inhibition ([1]; 100 mg/kg): 50%
% Inhibition Intraperitoneal ([2]; 10 mg/kg): 21%
% Inhibition Intraperitoneal ([2]; 30 mg/kg): 47%
% Inhibition Intraperitoneal ([2]; 110 mg/kg (so in the source)): 68%
% Inhibition Intraperitoneal [3]: 4%
% Inhibition Intraperitoneal ([4]; 10 mg/kg): 54%
% Inhibition Intraperitoneal ([4]; 30 mg/kg): 54%
% Inhibition Intraperitoneal ([4]; 100 mg/kg): 74%
% Inhibition Intraperitoneal ([5]; 10 mg/kg): 31%
% Inhibition Intraperitoneal ([5]; 30 mg/kg): 33%
% Inhibition Intraperitoneal ([5]; 110 mg/kg (so in the source)): 54%

CCCC[C@H](NC(=O)OCC1c2ccccc2-c2ccccc21)C(=O)O [NPC 15667, N-[9H-(Fluorenyl-9-ylmethoxy)carbonyl]-L-norleucine]
% Inhibition ([1]; 10 mg/kg): 22%
% Inhibition ([1]; 30 mg/kg): 57%
% Inhibition ([1]; 100 mg/kg): 80%
% Inhibition Intraperitoneal ([2]; 10 mg/kg): 7%
% Inhibition Intraperitoneal ([2]; 30 mg/kg): 57%
% Inhibition Intraperitoneal ([2]; 100 mg/kg): 65%
% Inhibition Intraperitoneal [3]: 63%
% Inhibition Intraperitoneal ([4]; 10 mg/kg): -80%
% Inhibition Intraperitoneal ([4]; 30 mg/kg): 72%
% Inhibition Intraperitoneal ([5]; 10 mg/kg): 13%
% Inhibition Intraperitoneal ([5]; 30 mg/kg): 15%
% Inhibition Intraperitoneal ([5]; 100 mg/kg): 71%
